# Literature values as cited in patent US20040192715A1, “Methods of administering opioid antagonists and compositions thereof” (priority 2003, published 2004).
# Columns and labels:
# mice = settings: parenteral administration to mice
# [1] = oral administration
structure (smiles),measurement,setting,value
"O=C1CC[C@@]2(O)[C@H]3Cc4ccc(O)c5c4[C@@]2(CCN3CC2CC2)C1O5 (stereo partly drawn) [naltrexone, 17-(cyclopropylmethyl) -4,5-epoxy-3,14-dihydroxymorphinan-6-one]",analgesia,mice,produce analgesia
same,oral bioavailability,[1],5-40%
same,protein binding,,approximately 21%
